Laboratory results: patent publication US7465727B2, “(1,10B-dihydro-2-(aminoalkyl-phenyl)-5H-pyrazolo[1,5-c][1,3]Benzoxazin-5-yl)phenyl methanone derivatives as HIV viral replication inhibitors” (priority 2005, dated 2008)
Read-outs that look alike come from different tables or passages of the source.

Key:
[1] = test system: multi-drug resistant HIV-1 virus (HIV-1-MDR); assay: microbe, parasite or virus in culture; type: cell-based; conditions: for Activity class for HIV-1-MDR test (pEC50 values): MT4-LTR-EGFP cells, three days incubation, GFP signal, average where more than one run
Description: (§1) The compounds were tested in a cellular assay using the MT4-LTR-EGFP cells for anti-viral activity. […] The cellular assay was performed according to the following procedure.
(§2) HIV- or mock-infected MT4-LTR-EGFP cells were incubated for three days in the presence of various concentrations of the inhibitor. Upon infection, the GFP reporter is activated by the viral tat protein. At the end of the incubation period, the GFP signal was measured. In the virus control samples (in the absence of any inhibitor) the maximal fluorescent signal was obtained. The inhibitory activity of the compound was monitored on the virus-infected cells and was expressed as EC50 and EC90. These values represent the amount of the compound required to protect 50% and 90%, respectively, of the cells from virus infection.

[2] = test system: wild type laboratory HIV strain (HIV-1 strain LAI); assay: microbe, parasite or virus in culture; type: cell-based
Description: as §1, §2

[3] = MT4-LTR-EGFP cells, three days incubation, GFP signal, average where more than one run

| SMILES | EC50 ([1]; Human immunodeficiency virus 1, 72 h, read-out: Activity class for HIV-1-MDR test (pEC50 values) (converted)) | EC50 ([2]; Human immunodeficiency virus 1, 72 h, MT4-LTR-EGFP cells, three days incubation, GFP signal, average where more than one run, read-out: Activity class for HIV-1-LAI test (pEC50 values) (converted)) | Activity class for HIV-1-MDR test (pEC50 values) [1] | Activity class for HIV-1-LAI test (pEC50 values) [2, 3] | Activity class for HIV-1-LAI test (pEC50 values) [2] |
| --- | --- | --- | --- | --- | --- |
| CCN(CC)Cc1ccc(C2=NN3C(C(=O)c4ccc(C#N)cc4)Oc4ccccc4C3C2)cc1 (stereo not drawn) [Compound 1, 4-[4-(4-cyano-benzoyl)-1,9b-dihydro-5-oxa-3,3a-diaza-cyclopenta[a]naphthalen-2-yl]-N,N-diethyl-benzylamine] | 8.71 nM | 19.1 nM | – | – | – |
| N#Cc1ccc(C(=O)C2Oc3ccccc3C3CC(c4ccc(CNCc5ccccc5)cc4)=NN23)cc1 (stereo not drawn) [Compound 2] | – | – | 7.83 | 7.58 | – |
| CN(C)CCN(C)Cc1ccc(C2=NN3C(C(=O)c4ccc(C#N)cc4)Oc4ccccc4C3C2)cc1 (stereo not drawn) [Compound 4] | – | – | 6.25 | 6.41 | – |
| COc1ccc(NCc2ccc(C3=NN4C(C(=O)c5ccc(C#N)cc5)Oc5ccccc5C4C3)cc2)cc1 (stereo not drawn) [Compound 5] | – | – | 6.5 | – | 6.22 |
| N#Cc1ccc(C(=O)C2Oc3ccccc3C3CC(c4ccc(CNCc5ccccn5)cc4)=NN23)cc1 (stereo not drawn) [Compound 6] | – | – | 7.28 | 7.13 | – |
| N#Cc1ccc(C(=O)C2Oc3ccccc3C3CC(c4ccc(CNCCN5CCCC5)cc4)=NN23)cc1 (stereo not drawn) [Compound 7] | – | – | 6.49 | 6.55 | – |
| COc1ccc(CN(C)Cc2ccc(C3=NN4C(C(=O)c5ccc(C#N)cc5)Oc5ccccc5C4C3)cc2)cc1 (stereo not drawn) [Compound 8] | – | – | 7.85 | 7.81 | – |
| COc1ccc(CN(C)Cc2ccc(C3=NN4C(C(=O)c5ccc(C(C)(C)C)cc5)Oc5ccccc5C4C3)cc2)cc1 (stereo not drawn) [Compound 9] | – | – | 7 | 7.28 | – |
| CCN(CC)Cc1ccc(C2=NN3C(C(=O)c4ccc(C(C)(C)C)cc4)Oc4ccccc4C3C2)cc1 (stereo not drawn) [Compound 11] | – | – | 7.59 | 7.64 | – |
| CCN(CC)CCc1ccc(C2=NN3C(C(=O)c4ccc(C#N)cc4)Oc4ccccc4C3C2)cc1 (stereo not drawn) [Compound 12] | – | – | 7.35 | 7.16 | – |
| CN(Cc1ccc(C2=NN3C(C(=O)c4ccc(C#N)cc4)Oc4ccccc4C3C2)cc1)C1CCCC1 (stereo not drawn) [Compound 13] | – | – | 8.62 | 8.32 | – |
| COc1ccc(NCCCc2ccc(C3=NN4C(C(=O)c5ccc(C#N)cc5)Oc5ccccc5C4C3)cc2)cc1 (stereo not drawn) [Compound 14] | – | – | 6.34 | – | 6.41 |
| CN(C)CCN(C)CCCc1ccc(C2=NN3C(C(=O)c4ccc(C#N)cc4)Oc4ccccc4C3C2)cc1 (stereo not drawn) [Compound 15] | – | – | 5.52 | 5.42 | – |
| CN(C)CCCc1ccc(C2=NN3C(C(=O)c4ccc(C#N)cc4)Oc4ccccc4C3C2)cc1 (stereo not drawn) [Compound 16] | – | – | 5.51 | – | 5.6 |
| N#Cc1ccc(C(=O)C2Oc3ccccc3C3CC(c4ccc(CCCNCc5ccccc5)cc4)=NN23)cc1 (stereo not drawn) [Compound 17] | – | – | 5.37 | 5.56 | – |
| N#Cc1ccc(C(=O)C2Oc3ccccc3C3CC(c4ccc(CCCCNCc5ccccc5)cc4)=NN23)cc1 (stereo not drawn) [Compound 18] | – | – | 5.47 | – | 5.47 |
| CCN(CC)CCCCc1ccc(C2=NN3C(C(=O)c4ccc(C#N)cc4)Oc4ccccc4C3C2)cc1 (stereo not drawn) [Compound 19] | – | – | 5.43 | 5.39 | – |

| SMILES | EC50 ([1]; Human immunodeficiency virus 1, 72 h, read-out: Activity class for HIV-1-MDR test (pEC50 values) (converted)) | EC50 ([2]; Human immunodeficiency virus 1, 72 h, MT4-LTR-EGFP cells, three days incubation, GFP signal, average where more than one run, read-out: Activity class for HIV-1-LAI test (pEC50 values) (converted)) | Activity class for HIV-1-MDR test (pEC50 values) [1] | Activity class for HIV-1-LAI test (pEC50 values) [2, 3] | Activity class for HIV-1-LAI test (pEC50 values) [2] |
| --- | --- | --- | --- | --- | --- |
| COc1ccc(NCCCCc2ccc(C3=NN4C(C(=O)c5ccc(C#N)cc5)Oc5ccccc5C4C3)cc2)cc1 (stereo not drawn) [Compound 20] | – | – | 6.51 | – | 7.42 |
| N#Cc1ccc(C(=O)C2Oc3ccccc3C3CC(c4ccc(CCCCNCc5ccncc5)cc4)=NN23)cc1 (stereo not drawn) [Compound 21] | – | – | 5.2 | 5.23 | – |
| CN(C)CCN(C)CCCCc1ccc(C2=NN3C(C(=O)c4ccc(C#N)cc4)Oc4ccccc4C3C2)cc1 (stereo not drawn) [Compound 22] | – | – | 5.47 | 5.52 | – |
| COc1ccc(CN(C)CCCCc2ccc(C3=NN4C(C(=O)c5ccc(C#N)cc5)Oc5ccccc5C4C3)cc2)cc1 (stereo not drawn) [Compound 23] | – | – | 5.32 | 5.38 | – |
| COc1ccc(CN(C)CCCc2ccc(C3=NN4C(C(=O)c5ccc(C#N)cc5)Oc5ccccc5C4C3)cc2)cc1 (stereo not drawn) [Compound 25] | – | – | 5.04 | 6.53 | – |
| N#Cc1ccc(C(=O)C2Oc3ccccc3C3CC(c4ccc(CCCCNCc5ccccn5)cc4)=NN23)cc1 (stereo not drawn) [Compound 26] | – | – | 4.86 | 5.28 | – |
| CN(CCCCc1ccc(C2=NN3C(C(=O)c4ccc(C#N)cc4)Oc4ccccc4C3C2)cc1)C1CCCC1 (stereo not drawn) [Compound 27] | – | – | 5.15 | 5.36 | – |
| COc1ccc(CN(C)Cc2ccc(C3=NN4C(C(=O)c5ccc(S(C)(=O)=O)cc5)Oc5ccccc5C4C3)cc2)cc1 (stereo not drawn) [Compound 29] | – | – | 8.56 | 8.47 | – |
| CCN(CC)Cc1ccc(C2=NN3C(C(=O)c4ccc(S(C)(=O)=O)cc4)Oc4ccccc4C3C2)cc1 (stereo not drawn) [Compound 30] | – | – | 7.95 | 7.9 | – |
| N#Cc1ccc(C(=O)C2Oc3ccccc3C3CC(c4ccc(CCCNCc5ccccn5)cc4)=NN23)cc1 (stereo not drawn) [Compound 31] | – | – | 5.38 | 4.85 | – |
| COc1ccc(CN(C)CCc2ccc(C3=NN4C(C(=O)c5ccc(C#N)cc5)Oc5ccccc5C4C3)cc2)cc1 (stereo not drawn) [Compound 32] | – | – | 6.72 | 7.08 | – |
| N#Cc1ccc(C(=O)C2Oc3ccccc3C3CC(c4ccc(CCNCc5ccccc5)cc4)=NN23)cc1 (stereo not drawn) [Compound 33] | – | – | 6.07 | 6.35 | – |
| CN(C)CCN(C)CCc1ccc(C2=NN3C(C(=O)c4ccc(C#N)cc4)Oc4ccccc4C3C2)cc1 (stereo not drawn) [Compound 34] | – | – | 6.12 | 6.25 | – |
| CN(CCCc1ccc(C2=NN3C(C(=O)c4ccc(C#N)cc4)Oc4ccccc4C3C2)cc1)C1CCCC1 (stereo not drawn) [Compound 35] | – | – | 5.81 | 5.76 | – |
| CN(Cc1ccc(C2=NN3C(C(=O)c4ccc(C#N)cc4)Oc4ccccc4C3C2)cc1)Cc1ccc(N(C)C)cc1 (stereo not drawn) [Compound 36] | – | – | 7.18 | 7.45 | – |
| CN(C)c1ccc(CNCc2ccc(C3=NN4C(C(=O)c5ccc(C#N)cc5)Oc5ccccc5C4C3)cc2)cc1 (stereo not drawn) [Compound 37] | – | – | 6.31 | 6.12 | – |
